In article PMC11672400, “Synthesis, Spectroscopic Characterization, Structural Analysis, and Evaluation of Anti-Tumor, Antimicrobial, and Antibiofilm Activities of Halogenoaminopyrazoles Derivatives” (Antibiotics, 2024):
In brackets after ≈: the same amount, converted by molar mass. Where two headings read alike, the source gives them in different places.

Assays:
[1] = tested on: Enterococcus faecalis ATCC29212; test: Qualitative evaluation of antimicrobial activity (inhibition zone, spot on agar); type: cell-based; design: key: (+) inhibited bacterial growth; (-) did not inhibit bacterial growth; conditions: 0.06 g/2 mL DMSO, 5 µL spot
Protocol: (§1) For testing the antimicrobial/antibiofilm activity, the concentration of the studied compounds was identical to 0.06 g/2 mL DMSO. 0.5 Standard McFarland suspension was used, which was inoculated onto Mueller Hinton agar plates, (Remel, Lenexa, KS, USA), 5 µL of each compound was spotted and incubated overnight at 37 °C. Antimicrobial activity was observed as zones of inhibition formed around the spot.

[2] = tested on: Staphylococcus aureus ATCC25923; test: as above; type: cell-based; design: key: (+) inhibited bacterial growth; (-) did not inhibit bacterial growth; conditions: 0.06 g/2 mL DMSO, 5 µL spot
Protocol: as §1

[3] = tested on: Pseudomonas aeruginosa ATCC27853; test: as above; type: cell-based; design: key: (+) inhibited bacterial growth; (-) did not inhibit bacterial growth; conditions: 0.06 g/2 mL DMSO, 5 µL spot
Protocol: as §1

[4] = tested on: Escherichia coli ATCC25922; test: as above; type: cell-based; design: key: (+) inhibited bacterial growth; (-) did not inhibit bacterial growth; conditions: 0.06 g/2 mL DMSO, 5 µL spot
Protocol: as §1

[5] = tested on: Enterococcus faecalis ATCC29212; test: MIC by serial microdilution in liquid medium; type: cell-based; conditions: 24 h, 37 °C
Protocol: (§2) The minimum inhibitory concentrations (MIC) were determined by the serial microdilution method in a liquid medium (Tryptone Soy Broth), on 96-well plates. Serial binary dilutions of the compound stock solution (10 mg/mL in DMSO) were carried out in 90 µL of culture medium and 10 µL of 10^6 CFU/mL (Colony Forming Units) microbial suspension. Each test included a positive control (wells with culture medium and microbial suspension) and a negative control for medium sterility. After incubation at 37 °C for 24 h the plates were visually examined, and optical density was measured at 620 nm. […] The MIC value (µg/mL) for the chemical compound was determined by the concentration in the final well without bacterial growth. All experiments were performed in triplicate.

[6] = tested on: Staphylococcus aureus ATCC25923; test: MIC by serial microdilution in liquid medium; type: cell-based; conditions: 24 h, 37 °C
Protocol: as §2

[7] = tested on: Pseudomonas aeruginosa ATCC27853; test: MIC by serial microdilution in liquid medium; type: cell-based; conditions: 24 h, 37 °C
Protocol: as §2

[8] = tested on: Escherichia coli ATCC25922; test: MIC by serial microdilution in liquid medium; type: cell-based; conditions: 24 h, 37 °C
Protocol: as §2

[9] = tested on: HEp-2 epithelial tumor cells; test: MTT cell viability / anti-tumor activity; conditions: Homo sapiens; for viability at 3.1 µg/mL / viability at 6.25 µg/mL / viability at 12.5 µg/mL / viability at 25 µg/mL / viability at 50 µg/mL: read-out: Cell viability on Hep2 cells (%)
Protocol: The cytotoxicity of the halogenoaminopyrazole derivatives 4a–f and 5a–e was tested on L929 mouse fibroblast cells, and their anti-tumor activity was evaluated on the human carcinoma epithelial cell line HEp-2. The experiments were performed in a concentration range of 3.1–50 μg/mL.
The MTT test was used, 3-(4,5-dimethylthiazol-2-yl)-2,5-diphenyl tetrazolium bromide), which is reduced to insoluble purple-blue formazan crystals precipitated by living cells. Cell viability assessed using the MTT assay reflects the activity of mitochondrial enzymes in treated cells compared to the control culture of untreated cells.
To assess the biocompatibility of the substances, a stable mouse fibroblast cell line, NCTC (clone 929), was grown in minimal essential medium (MEM) with 10% fetal bovine serum (FBS) and 2 mM L-glutamine, along with 100 U/mL penicillin, 100 µg/mL streptomycin, and 500 µg/mL neomycin. The concentration of the compounds used was 0.06 g/2 mL DMSO.
In cytotoxicity experiments, compound solutions were utilized at concentrations of 3.1 μg/mL, 6.25 μg/mL, 12.5 μg/mL, 25 μg/mL, and 50 μg/mL. The NCTC cell suspension was placed into 96-well culture plates with a concentration of 4 × 10^4 cells/mL and incubated at 37 °C for 24 h in a 5% CO2 humidified atmosphere. The compounds under study were placed in sets of three at varying concentrations ranging from 3.1 μg/mL to 50 μg/mL in every well, and the plates were then kept under standard conditions for 48 h. Cell viability was determined through the utilization of the MTT assay. Next, the MTT solution was removed, then isopropanol was added to solubilize the formazan crystals. The colored solution was then measured for absorbance at 570 nm using a Berthold Technologies, LB 940 microplate reader (Bad Wildbad, Germany). The outcomes were determined based on Formula (1) while considering that the recorded optical density is directly related to the number of viable cells in the cell culture being examined [35, 36]. % cell viability = (OD sample/OD control) × 100%(1)
For each tested compound, a graph representing percentage cell viability versus concentrations (in the range 3.1–50 µg/mL) was obtained. Then, the IC50 value was calculated by using ED50 plus V1.0 software.

[10] = MTT cell viability / cytotoxicity on normal fibroblasts; type: cell-based, mouse; conditions: mouse, NCTC clone 929 (L929) mouse fibroblast cells
Description: (§3) Merck chemicals were utilized.
(§4) Untreated cells were used as control, considered 100% viable cells.

[11] = tested on: NCTC (clone 929) mouse fibroblast cells; test: as above; type: cell-based; conditions: Mus musculus, NCTC clone 929; NCTC normal fibroblasts, MTT, 48 h
Description: as §3, §4

[12] = tested on: Staphylococcus aureus ATCC25923; test: Antibiofilm assay (crystal violet), MBIC; type: cell-based; conditions: 24 h, 37 °C
Protocol: (§5) Microorganisms were grown in 96-well plates filled with nutrient broth along with test substances, followed by incubation at 37 °C for 24 h. Plates were cleaned and rinsed thrice using SPW solution (sterile physiological water). After that, the attached cells were treated with 110 μL of methanol for 5 min, and then the methanol was removed by turning it upside down. […] Once stained, the solution was removed, and the plates were washed with running tap water. […] The antimicrobial/antibiofilm activity of the compounds was evaluated against two antibiotics, commercial formulations of metronidazole and nitrofurantoin.

[13] = tested on: Pseudomonas aeruginosa ATCC27853; test: Antibiofilm assay (crystal violet), MBIC; type: cell-based; conditions: 37 °C
Protocol: as §5

Compound: Cc1nn(CNc2ccc(Cl)cc2)c(C)c1[N+](=O)[O-] [4b, N-[(3,5-dimetyl-4-nitro-1H-pyrazol-1-yl)-methyl]-4-chloroaniline]
- melting point: 99 to 100 °C
- Qualitative antimicrobial activity, Enterococcus faecalis ATCC29212 [1]: +
- Qualitative antimicrobial activity, Staphylococcus aureus ATCC25923 [2]: +
- Qualitative antimicrobial activity, Pseudomonas aeruginosa ATCC27853 [3]: +
- Qualitative antimicrobial activity, Escherichia coli ATCC25922 [4]: +
- Minimum inhibitory concentration, Enterococcus faecalis ATCC29212 [5]: 460 ± 0.02 µg/mL (≈ 1640 µM)
- MIC ([5]; Enterococcus faecalis, ATCC29212, read-out: Minimum inhibitory concentration, Enterococcus faecalis ATCC29212): 460 µg/mL (≈ 1640 µM)
- Minimum inhibitory concentration, Staphylococcus aureus ATCC25923 [6]: 460 ± 0.02 µg/mL (≈ 1640 µM)
- MIC ([6]; Staphylococcus aureus, ATCC25923, read-out: Minimum inhibitory concentration, Staphylococcus aureus ATCC25923): 460 µg/mL (≈ 1640 µM)
- Minimum inhibitory concentration, Pseudomonas aeruginosa ATCC27853 [7]: 460 ± 0.01 µg/mL (≈ 1640 µM)
- MIC ([7]; Pseudomonas aeruginosa, ATCC27853, read-out: Minimum inhibitory concentration, Pseudomonas aeruginosa ATCC27853): 460 µg/mL (≈ 1640 µM)
- Minimum inhibitory concentration, Escherichia coli ATCC25922 [8]: 460 ± 0.05 µg/mL (≈ 1640 µM)
- MIC ([8]; Escherichia coli, ATCC25922, read-out: Minimum inhibitory concentration, Escherichia coli ATCC25922): 460 µg/mL (≈ 1640 µM)
- viability at 3.1 µg/mL ([9]; HEp-2, 24 h): 116 ± 2.48%
- viability at 6.25 µg/mL ([9]; HEp-2, 24 h): 105 ± 2.91%
- viability at 12.5 µg/mL ([9]; HEp-2, 24 h): 100 ± 2.49%
- viability at 25 µg/mL ([9]; HEp-2, 24 h): 88.8 ± 1.65%
- viability at 50 µg/mL ([9]; HEp-2, 24 h): 65.6 ± 2.78%
- viability at 3.1 µg/mL ([9]; HEp-2, 48 h): 112.6 ± 1.03%
- viability at 6.25 µg/mL ([9]; HEp-2, 48 h): 104 ± 1.08%
- viability at 12.5 µg/mL ([9]; HEp-2, 48 h): 98 ± 1.42%
- viability at 25 µg/mL ([9]; HEp-2, 48 h): 79.5 ± 1.49%
- viability at 50 µg/mL ([9]; HEp-2, 48 h): 46.8 ± 3.35%
- IC50 ([9]; HEp-2, 48 h, read-out: IC50 µg/mL on HEp-2 Cells 48 h, HEp-2 epithelial tumor cells, MTT, 48 h): 47.3 ± 3.38 µg/mL (≈ 169 µM)
- viability at 24 h, 3.1 µg/mL ([10]; 3.1 µg/mL, 24h): 100 ± 1.63%
- viability at 48 h, 3.1 µg/mL ([10]; 3.1 µg/mL, 48h): 95.08 ± 0.82%
- viability at 24 h, 6.25 µg/mL ([10]; 6.25 µg/mL, 24h): 101 ± 3.31%
- viability at 48 h, 6.25 µg/mL ([10]; 6.25 µg/mL, 48h): 93 ± 1.35%
- viability at 24 h, 12.5 µg/mL ([10]; 12.5 µg/mL, 24h): 98.6 ± 2.62%
- viability at 48 h, 12.5 µg/mL ([10]; 12.5 µg/mL, 48h): 89.7 ± 3.15%
- viability at 24 h, 25 µg/mL ([10]; 25 µg/mL, 24h): 96.3 ± 2.22%
- viability at 48 h, 25 µg/mL ([10]; 25 µg/mL, 48h): 61.9 ± 1.38%
- viability at 24 h, 50 µg/mL ([10]; 50 µg/mL, 24h): 64.9 ± 0.94%
- viability at 48 h, 50 µg/mL ([10]; 50 µg/mL, 48h): 31.6 ± 1.27%
- IC50 [11]: 36.1 ± 1.23 µg/mL (≈ 129 µM)
- Minimum biofilm inhibition concentration (MBIC), Staphylococcus aureus ATCC25923 [12]: 460 ± 0.01 µg/mL
- minimal effective concentration ([12]; Staphylococcus aureus, ATCC25923, read-out: Minimum biofilm inhibition concentration (MBIC), Staphylococcus aureus ATCC25923): 460 µg/mL
- Minimum biofilm inhibition concentration (MBIC), Pseudomonas aeruginosa ATCC27853 ([13]; 24 h): 460 ± 0.02 µg/mL
- minimal effective concentration ([13]; Pseudomonas aeruginosa, ATCC27853, 24 h, read-out: Minimum biofilm inhibition concentration (MBIC), Pseudomonas aeruginosa ATCC27853): 460 µg/mL
